Measurements as given in patent US20250122221A1 (NANJING ZAIMING PHARMACEUTICAL CO., LTD., priority 2022, published 2025).

biological target: N-terminal active peptide segment (MI-N899) of POLQ with ATPase activity (Homo sapiens (Human), UniProt O75417); assay: POLQ enzyme activity inhibition experiment (ATPase, NADH-coupled, OD 340 nm); format: biochemical; settings: 100 nM POLQ (N), 100 μM ATP, 300 nM dT50
Experimental: The Envision microplate reader from Perkin Elmer Inc was used to measure the reduction of OD value of NADH at 340 nm, thus reflecting the enzyme activity. Experimental method: The POLQ enzyme was diluted to 100 nM with a reaction buffer (20 mM Tris HCl (pH 7.80), 80 mM KCl, 10 mM MgCl2, 1 mM DTT, 0.01% w/v bovine serum albumin, 0.01% v/v Tween-20, and 5% v/v glycerol). The compounds to be tested were diluted to different concentrations in dimethyl sulfoxide (DMSO) using the Echo 650 pipetting system, and transferred to a 384-well plate, 20 μL/well of 100 nM POLQ was added, and the mixture was incubated at room temperature for 15 minutes. A reaction mixture solution was formulated, and the concentration of each component in the reaction mixture solution was: 100 μM ATP, 300 nM […], 300 μM NADH, 6 mM PEP, 10 U/mL lactate dehydrogenase and 20 U/mL pyruvate kinase. 20 μL/well of reaction mixture solution was added to start the enzyme reaction. […] The concentration range was from 10 μM to 0.0005 μM, and the final concentration of DMSO in the system was 0.2% v/v. The 384-well plate was reacted at room temperature for 20 minutes, and then the OD value at 340 nm was read with an Envision microplate reader. The inhibition rate was calculated, and XLfit software was used to perform fitting to obtain IC50 of the compounds. In the experiment, a blank group and a DMSO group were set up, respectively.

Chain of N-terminal active peptide segment (MI-N899) of POLQ with ATPase activity (O75417 1-899 limits assumed): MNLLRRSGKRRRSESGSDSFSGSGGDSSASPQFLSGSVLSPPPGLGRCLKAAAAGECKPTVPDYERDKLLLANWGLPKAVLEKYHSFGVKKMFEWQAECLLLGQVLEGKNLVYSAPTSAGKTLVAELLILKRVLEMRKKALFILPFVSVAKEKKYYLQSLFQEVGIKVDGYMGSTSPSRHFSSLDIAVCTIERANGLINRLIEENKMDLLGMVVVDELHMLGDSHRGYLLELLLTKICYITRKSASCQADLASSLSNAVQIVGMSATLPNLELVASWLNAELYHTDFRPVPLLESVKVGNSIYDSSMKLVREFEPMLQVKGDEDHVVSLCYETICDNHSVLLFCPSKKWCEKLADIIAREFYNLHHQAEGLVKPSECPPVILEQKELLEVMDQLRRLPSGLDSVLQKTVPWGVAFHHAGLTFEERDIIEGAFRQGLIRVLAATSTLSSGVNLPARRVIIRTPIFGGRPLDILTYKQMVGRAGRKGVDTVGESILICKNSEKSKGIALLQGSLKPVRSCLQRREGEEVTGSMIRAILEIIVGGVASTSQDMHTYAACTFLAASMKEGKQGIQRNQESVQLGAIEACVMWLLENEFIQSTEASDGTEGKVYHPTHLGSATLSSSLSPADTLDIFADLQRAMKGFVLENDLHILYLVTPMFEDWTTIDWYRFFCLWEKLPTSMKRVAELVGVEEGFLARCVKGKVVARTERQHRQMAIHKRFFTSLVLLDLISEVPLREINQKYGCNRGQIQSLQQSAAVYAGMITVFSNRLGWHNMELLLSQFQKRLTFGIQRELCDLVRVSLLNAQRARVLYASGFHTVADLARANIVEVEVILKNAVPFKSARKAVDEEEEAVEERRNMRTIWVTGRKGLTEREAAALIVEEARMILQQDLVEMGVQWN

IC50 [nM]	SMILES
100 to 500	COc1ccccc1-c1cnccc1C(=O)Nc1nc2ccc(-c3ccc(Cl)cc3)nc2s1 [Compound 1, N-(5-(4-chlorophenyl)thiazolo[5,4-b]pyridin-2-yl)-3-(2-methoxyphenyl)pyridine-4-carboxamide]
< 100	COc1ccccc1-c1cnccc1C(=O)Nc1nc2ncc(-c3cccc(Cl)c3)nc2s1 [Compound 5, N-(6-(3-chlorophenyl)thiazolo[4,5-b]pyrazin-2-yl)-3-(2-methoxyphenyl)pyridine-4-carboxamide]
< 100	COc1ccccc1-c1cnccc1C(=O)Nc1nc2ncc(-c3ccc(C)cc3)nc2s1 [Compound 6, 3-(2-methoxyphenyl)-N-(6-(4-methylphenyl)thiazolo[4,5-b]pyrazin-2-yl)pyridine-4-carboxamide]
< 100	COc1ccccc1-c1cnccc1C(=O)Nc1nc2ncc(-c3ccc(C#N)nc3)nc2s1 [Compound 11, N-(6-(6-cyanopyridin-3-yl)thiazolo[4,5-b]pyrazin-2-yl)-3-(2-methoxyphenyl)isonicotinamide]
< 100	COc1ccccc1-c1cnccc1C(=O)Nc1nc2ncc(-c3ccc(C#N)c(F)c3)nc2s1 [Compound 12, N-(6-(4-cyano-3-fluorophenyl)thiazolo[4,5-b]pyrazin-2-yl)-3-(2-methoxyphenyl)isonicotinamide]
< 100	COc1ccccc1-c1cnccc1C(=O)Nc1nc2ncc(-c3ccc(C#N)cc3F)nc2s1 [Compound 13, N-(6-(4-cyano-2-fluorophenyl)thiazolo[4,5-b]pyrazin-2-yl)-3-(2-methoxyphenyl)isonicotinamide]
< 100	COc1cc(-c2cnc3nc(NC(=O)c4ccncc4-c4ccccc4OC)sc3n2)ccc1C#N [Compound 14, N-(6-(4-cyano-3-methoxyphenyl)thiazolo[4,5-b]pyrazin-2-yl)-3-(2-methoxyphenyl)isonicotinamide]
< 100	COc1cc(C#N)ccc1-c1cnc2nc(NC(=O)c3ccncc3-c3ccccc3OC)sc2n1 [Compound 15, N-(6-(4-cyano-2-methoxyphenyl)thiazolo[4,5-b]pyrazin-2-yl)-3-(2-methoxyphenyl)isonicotinamide]
< 100	COc1cccc(F)c1-c1cc(C#N)ncc1C(=O)Nc1nc2ncc(-c3ccc(Cl)cc3)nc2s1 [Compound 17, N-(6-(4-chlorophenyl)thiazolo[4,5-b]pyrazin-2-yl)-6-cyano-4-(2-fluoro-6-methoxyphenyl)nicotinamide]
< 100	N#Cc1cc(-c2ccccc2OC(F)F)c(C(=O)Nc2nc3ncc(-c4ccc(Cl)cc4)nc3s2)cn1 [Compound 18, N-(6-(4-chlorophenyl)thiazolo[4,5-b]pyrazin-2-yl)-6-cyano-4-(2-(difluoromethoxy)phenyl)nicotinamide]
< 100	COc1ccccc1-c1cc(C#N)ncc1C(=O)Nc1nc2ncc(-c3ccc(=O)n(C)c3)nc2s1 [Compound 19, 6-cyano-4-(2-methoxyphenyl)-N-(6-(1-methyl-6-oxo-1,6-dihydropyridin-3-yl)thiazolo[4,5-b]pyrazin-2-yl)nicotinamide]
< 100	COc1ccc(C#N)cc1-c1cc(C)ncc1C(=O)Nc1nc2ncc(-c3ccc(C4CC4)cn3)nc2s1 [Compound 22, 4-(5-cyano-2-methoxyphenyl)-N-(6-(5-cyclopropylpyridin-2-yl)thiazolo[4,5-b]pyrazin-2-yl)-6-methylnicotinamide]
< 100	COc1ccccc1-c1cc(C)ncc1C(=O)Nc1nc2ncc(-c3ccc(C#N)cc3)nc2s1 [Compound 31, N-(6-(4-cyanophenyl)thiazolo[4,5-b]pyrazin-2-yl)-4-(2-methoxyphenyl)-6-methylpyridine-3-carboxamide]
< 100	COc1ccccc1-c1cc(C#N)ncc1C(=O)Nc1nc2ncc(-c3ccc(C#N)cc3)nc2s1 [Compound 35, 6-cyano-N-(6-(4-cyanophenyl)thiazolo[4,5-b]pyrazin-2-yl)-4-(2-methoxyphenyl)pyridine-3-carboxamide]
< 100	COc1ccccc1-c1cc(C(F)(F)F)ncc1C(=O)Nc1nc2ncc(-c3ccc(C#N)cc3)nc2s1 [Compound 36, N-(6-(4-cyanophenyl)thiazolo[4,5-b]pyrazin-2-yl)-4-(2-methoxyphenyl)-6-(trifluoromethyl)pyridine-3-carboxamide]
< 100	N#Cc1ccc(-c2cnc3nc(NC(=O)c4cnc(C#N)cc4N4CCOCC4)sc3n2)cc1 [Compound 39, 6-cyano-N-(6-(4-cyanophenyl)thiazolo[4,5-b]pyrazin-2-yl)-4-morpholinopyridine-3-carboxamide]
< 100	COc1cc(C#N)ccc1-c1cnccc1C(=O)Nc1nc2ncc(-c3ccc(C#N)cc3)nc2s1 [Compound 40, 3-(4-cyano-2-methoxyphenyl)-N-(6-(4-cyanophenyl)thiazolo[4,5-b]pyrazin-2-yl)pyridine-4-carboxamide]
< 100	C#Cc1ccccc1-c1cc(Cl)ncc1C(=O)Nc1nc2ncc(-c3ccc(C#N)cc3)nc2s1 [Compound 43, 6-chloro-N-(6-(4-cyanophenyl)thiazolo[4,5-b]pyrazin-2-yl)-4-(2-ethynylphenyl)pyridine-3-carboxamide]
< 100	COc1ncccc1-c1cc(C)ncc1C(=O)Nc1nc2ncc(-c3ccc(C#N)cc3)nc2s1 [Compound 44, N-(6-(4-cyanophenyl)thiazolo[4,5-b]pyrazin-2-yl)-2-methoxy-6′-methyl-[3,4′-bipyridine]-3′-carboxamide]
< 100	COc1cnccc1-c1cc(C)ncc1C(=O)Nc1nc2ncc(-c3ccc(C#N)cc3)nc2s1 [Compound 45, N-(6-(4-cyanophenyl)thiazolo[4,5-b]pyrazin-2-yl)-3′-methoxy-6-methyl-[4,4′-bipyridine]-3-carboxamide]
< 100	C#Cc1cc(F)ccc1-c1cc(C)ncc1C(=O)Nc1nc2ncc(-c3ccc(C#N)cc3)nc2s1 [Compound 47, N-(6-(4-cyanophenyl)thiazolo[4,5-b]pyrazin-2-yl)-4-(2-ethynyl-4-fluorophenyl)-6-methylpyridine-3-carboxamide]
< 100	C#Cc1cccc(F)c1-c1cc(C)ncc1C(=O)Nc1nc2ncc(-c3ccc(C#N)cc3)nc2s1 [Compound 49, N-(6-(4-cyanophenyl)thiazolo[4,5-b]pyrazin-2-yl)-4-(2-ethynyl-6-fluorophenyl)-6-methylpyridine-3-carboxamide]

SMILES	IC50 [nM]
COc1ccccc1-c1cnccc1C(=O)Nc1nc2ncc(-c3ccc(Cl)cc3)nc2s1 [Compound 2, N-(6-(4-chlorophenyl)thiazolo[4,5-b]pyrazin-2-yl)-3-(2-methoxyphenyl)pyridine-4-carboxamide]	< 100
COc1cccc(F)c1-c1cnccc1C(=O)Nc1nc2ncc(-c3ccc(Cl)cc3)nc2s1 [Compound 3, N-(6-(4-chlorophenyl)thiazolo[4,5-b]pyrazin-2-yl)-3-(2-fluoro-6-methoxyphenyl)pyridine-4-carboxamide]	< 100
COc1ccccc1-c1cc(C)ncc1C(=O)Nc1nc2ncc(-c3ccc(Cl)cc3)nc2s1 [Compound 4]	< 100
COc1ccc(-c2cnc3nc(NC(=O)c4ccncc4-c4ccccc4OC)sc3n2)cc1 [Compound 7, 3-(2-methoxyphenyl)-N-(6-(4-methoxyphenyl)thiazolo[4,5-b]pyrazin-2-yl)pyridine-4-carboxamide]	< 100
COc1ccccc1-c1cnccc1C(=O)Nc1nc2cnc(-c3ccc(Cl)cc3)nc2s1 [Compound 8, N-(5-(4-chlorophenyl)thiazolo[5,4-d]pyrimidin-2-yl)-3-(2-methoxyphenyl)pyridine-4-carboxamide]	< 100
COc1ccccc1-c1cnccc1C(=O)Nc1nc2ncc(-c3ccc(Cl)cc3)cc2s1 [Compound 10, N-(6-(4-chlorophenyl)thiazolo[4,5-b]pyridin-2-yl)-3-(2-methoxyphenyl)isonicotinamide]	< 100
COc1ccccc1-c1cc(C#N)ncc1C(=O)Nc1nc2ncc(-c3ccc(Cl)cc3)nc2s1 [Compound 28, N-(6-(4-chlorophenyl)thiazolo[4,5-b]pyrazin-2-yl)-6-cyano-4-(2-methoxyphenyl)pyridine-3-carboxamide]	< 100
C#Cc1ccccc1-c1cnccc1C(=O)Nc1nc2ncc(-c3ccc(Cl)cc3)nc2s1 [Compound 29, N-(6-(4-chlorophenyl)thiazolo[4,5-b]pyrazin-2-yl)-3-(2-ethynylphenyl)pyridine-4-carboxamide]	< 100
N#Cc1ccc(C(=O)Nc2nc3ncc(-c4ccc(Cl)cc4)nc3s2)c(-c2ccccc2C#N)c1 [Compound 37, N-(6-(4-chlorophenyl)thiazolo[4,5-b]pyrazin-2-yl)-2′,5-dicyano-[1,1′-biphenyl]-2-carboxamide]	< 100
C#Cc1ccccc1-c1cc(C#N)ncc1C(=O)Nc1nc2ncc(-c3ccc(Cl)cc3)nc2s1 [Compound 38, N-(6-(4-chlorophenyl)thiazolo[4,5-b]pyrazin-2-yl)-6-cyano-4-(2-ethynylphenyl)pyridine-3-carboxamide]	< 100
COc1ccccc1-c1cn2ccnc2cc1C(=O)Nc1nc2ncc(-c3ccc(C#N)cc3)nc2s1 [Compound 41, N-(6-(4-cyanophenyl)thiazolo[4,5-b]pyrazin-2-yl)-6-(2-methoxyphenyl)imidazo[1,2-a]pyridine-7-carboxamide]	< 100
